Data taken from patent US4906662A, “Phenol derivatives, their preparation and the use thereof” (Otsuka Pharmaceutical Factory, Inc., priority 1986, dated 1990).
Where a name gives a salt, the structure may show the parent alone.

Key:
5-lipoxygenase = target: T1, 5-lipoxygenase (Cavia porcellus, UniProt A0A286X958); test: 5-Lipoxygenase inhibitory activity (5-HETE formation in guinea pig peritoneal exudate cells); type: cell-based; conditions: read-out: Percent inhibition of 5-lipoxygenase
T1 construct: endogenous in cells; host or cells: guinea pig peritoneal exudate cells (casein-elicited), intact cell suspension
T1 sequence (A0A286X958 1-674): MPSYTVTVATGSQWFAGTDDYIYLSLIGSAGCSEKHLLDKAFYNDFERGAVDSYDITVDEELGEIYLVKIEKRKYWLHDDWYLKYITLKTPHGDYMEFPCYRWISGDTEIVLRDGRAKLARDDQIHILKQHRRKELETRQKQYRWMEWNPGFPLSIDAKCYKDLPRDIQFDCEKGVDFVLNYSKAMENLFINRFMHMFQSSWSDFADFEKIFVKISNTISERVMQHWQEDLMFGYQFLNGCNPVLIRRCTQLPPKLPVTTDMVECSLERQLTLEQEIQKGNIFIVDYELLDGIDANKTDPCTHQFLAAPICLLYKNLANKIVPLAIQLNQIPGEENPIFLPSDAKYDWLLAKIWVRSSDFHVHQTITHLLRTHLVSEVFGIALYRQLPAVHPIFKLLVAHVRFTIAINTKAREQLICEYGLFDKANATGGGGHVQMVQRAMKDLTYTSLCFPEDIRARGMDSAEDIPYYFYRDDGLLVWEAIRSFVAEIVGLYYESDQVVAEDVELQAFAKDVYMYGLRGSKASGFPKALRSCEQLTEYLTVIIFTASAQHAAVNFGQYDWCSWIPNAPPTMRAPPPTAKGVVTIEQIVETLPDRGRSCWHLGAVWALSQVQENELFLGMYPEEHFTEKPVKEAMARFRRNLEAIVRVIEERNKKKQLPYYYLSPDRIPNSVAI
Description: (J. Biol. Chem., 256, 4156 (1981)) and to the method of Ochi et al. (J. Biol. Chem., 258, 5754 (1983). More specifically, 2% casein was intraperitoneally given to a guinea pig, which was bleeded to death 14 to 16 hours thereafter. The peritoneal cavity was washed to collect exudate cells, which were suspended in a phosphate buffer containing 1 mM CaCl2 and 5.5 mM glucose to a concentration of 2.5×10^7 cells/ml. The cell suspension was incubated at 30° C. for 2 minutes. The test compound was then added to the cell suspension, followed by incubation for 2 minutes. With addition of 10 μM of A23187 first and then 10 μM of ^14 C-arachidonic acid to the resulting suspension. Then, the suspension was incubated for 3 minutes. […] The arachidonic acid, 5(S)-hydroxy-6,8,11,14-eicosatetraenoic acid (5-HETE) and other portions were thereafter scraped off, and ^14 C was counted by a scintillator.

[1] = system: carrageenin-induced paw edema; test: Anti-inflammatory activity: inhibition of carrageenin-induced paw edema in rats; type: in vivo, rat (S.D. strain, male); conditions: po; 100 mg/kg p.o.; rat, 3 hours after carrageenin; read-out: Percent inhibition of edema
Description: (1) Anti-inflammatory activity:inhibition of carrageenin-induced paw edema in rats The compound was tested for the above activity according to the method of Winter et al. [Proc. Soc. […] One hour after the test compound was orally given to the animal, 0.1 ml of 1% carrageenin solution was subcutaneously injected into the right footpad. The paw volume was measured 3 hours thereafter, and the resulting increase in the volume was calculated based on the volume before the injection of carrageenin solution. The percent inhibition was determined in comparison with the increase in the control group.

CC(C)(C)c1cc(Nc2cccc(CO)c2)cc(C(C)(C)C)c1O [Compound 31, 2,6-di-tert-butyl-4-(3-hydroxymethylphenylamino)phenol hydrochloride]
inhibition at 1 µM (5-lipoxygenase): 50% | inhibition at 10 µM (5-lipoxygenase): 88% | inhibition in vivo at 100 mg/kg [1]: 33%

CC(C)(C)c1cc(Nc2ccccc2CO)cc(C(C)(C)C)c1O [Compound 32, 2,6-di-tert-butyl-4-(2-hydroxymethylphenylamino)phenol]
inhibition at 1 µM (5-lipoxygenase): 34% | inhibition at 10 µM (5-lipoxygenase): 63% | inhibition in vivo at 100 mg/kg [1]: 74%

Cc1cc(Nc2ccccc2)c(C)c(C)c1O [Compound 79, 2,3,6-trimethyl-4-phenylaminophenol]
inhibition at 1 µM (5-lipoxygenase): 87% | inhibition at 10 µM (5-lipoxygenase): 93% | inhibition in vivo at 100 mg/kg [1]: 47%
